In patent US7018612B1, “Method of preparing a radioactive rhenium complex solution” (Mallinckrodt Inc., priority 1990, dated 2006):

Assay: Influence of reaction temperature on stability of Re186-HEDP during storage at ambient temperature
Assay type: physicochemical

Re186-HEDP content at t=0 (labelling by heating 15 minutes in a boiling water bath (just below 100° C.), t=0): 99.12%
Re186-HEDP content at t=24 h (labelling by heating 15 minutes in a boiling water bath, storage at ambient temperature, t=24 h): 93.72%
Substance: rhenium-186 labelled 1-hydroxyethylidene diphosphonate [Re186-HEDP]
